ChEMBL document CHEMBL2074536, “Characterization of stably transfected kidney epithelial cell line expressing rat H+/peptide cotransporter PEPT1: localization of PEPT1 and transport of beta-lactam antibiotics” (J Pharmacol Exp Ther, 1997)
Where a SMILES comes first, the peptide text is derived from it.

What was measured:
Type in all cases: functional, cell-based
[1] = biological target: T1, Solute carrier family 15 member 1 (Rattus norvegicus) (UniProt P51574); experiment: TP_TRANSPORTER: inhibition of Cephradine uptake (Cephradine: 1000 uM, Ceftibuten: 5000 uM) in PEPT1-expressing LLC-PK1 cells
T1 sequence (whole entry): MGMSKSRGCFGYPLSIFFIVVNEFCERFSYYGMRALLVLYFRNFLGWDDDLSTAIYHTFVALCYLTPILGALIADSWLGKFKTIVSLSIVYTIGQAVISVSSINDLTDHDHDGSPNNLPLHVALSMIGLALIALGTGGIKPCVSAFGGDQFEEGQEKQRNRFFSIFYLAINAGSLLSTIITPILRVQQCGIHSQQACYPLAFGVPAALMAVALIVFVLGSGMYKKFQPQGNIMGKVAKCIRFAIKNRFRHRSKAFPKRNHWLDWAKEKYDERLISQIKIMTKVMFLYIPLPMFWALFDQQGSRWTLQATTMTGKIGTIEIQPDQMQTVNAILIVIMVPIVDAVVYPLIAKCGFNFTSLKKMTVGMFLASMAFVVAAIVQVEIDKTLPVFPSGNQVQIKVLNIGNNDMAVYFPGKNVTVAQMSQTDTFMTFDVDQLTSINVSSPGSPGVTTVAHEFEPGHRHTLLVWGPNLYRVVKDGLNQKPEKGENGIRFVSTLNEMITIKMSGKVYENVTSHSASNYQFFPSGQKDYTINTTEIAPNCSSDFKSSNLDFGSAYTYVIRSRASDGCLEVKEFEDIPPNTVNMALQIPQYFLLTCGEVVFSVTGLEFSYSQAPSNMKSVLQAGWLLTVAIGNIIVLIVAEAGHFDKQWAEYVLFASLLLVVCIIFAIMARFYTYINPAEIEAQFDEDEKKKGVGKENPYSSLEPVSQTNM

[2] = biological target: T1, Solute carrier family 15 member 1 (Rattus norvegicus); experiment: TP_TRANSPORTER: inhibition of Cephradine uptake (Cephradine: 1000 uM, Gly-Leu: 10000 uM) in PEPT1-expressing LLC-PK1 cells
[3] = biological target: T1, Solute carrier family 15 member 1 (Rattus norvegicus); experiment: TP_TRANSPORTER: inhibition of Ceftibuten uptake (Ceftibuten: 1000 uM, Gly-Leu: 10000 uM) in PEPT1-expressing LLC-PK1 cells
[4] = biological target: T1, Solute carrier family 15 member 1 (Rattus norvegicus); experiment: TP_TRANSPORTER: inhibition of Cephradine uptake (Cephradine: 1000 uM, Gly-Gly-Phe: 10000 uM) in PEPT1-expressing LLC-PK1 cells
[5] = biological target: T1, Solute carrier family 15 member 1 (Rattus norvegicus); experiment: TP_TRANSPORTER: inhibition of Ceftibuten uptake (Ceftibuten: 1000 uM, Gly-Gly-Phe: 10000 uM) in PEPT1-expressing LLC-PK1 cells
[6] = biological target: T1, Solute carrier family 15 member 1 (Rattus norvegicus); experiment: TP_TRANSPORTER: inhibition of Cephradine uptake (Cephradine: 1000 uM, Gly-Sar: 10000 uM) in PEPT1-expressing LLC-PK1 cells
[7] = biological target: T1, Solute carrier family 15 member 1 (Rattus norvegicus); experiment: TP_TRANSPORTER: inhibition of Ceftibuten uptake (Ceftibuten: 1000 uM, Gly-Sar: 10000 uM) in PEPT1-expressing LLC-PK1 cells
[8] = biological target: T1, Solute carrier family 15 member 1 (Rattus norvegicus); experiment: TP_TRANSPORTER: inhibition of Cephradine uptake (Cephradine: 1000 uM, Bestatin: 10000 uM) in PEPT1-expressing LLC-PK1 cells
[9] = biological target: T1, Solute carrier family 15 member 1 (Rattus norvegicus); experiment: TP_TRANSPORTER: inhibition of Ceftibuten uptake (Ceftibuten: 1000 uM, Bestatin: 10000 uM) in PEPT1-expressing LLC-PK1 cells
[10] = biological target: T1, Solute carrier family 15 member 1 (Rattus norvegicus); experiment: (§1) TP_TRANSPORTER: uptake in PEPT1-expressing LLC-PK1 cells
[11] = biological target: T1, Solute carrier family 15 member 1 (Rattus norvegicus); experiment: TP_TRANSPORTER: inhibition of Ceftibuten uptake (Ceftibuten: 1000 uM, Cefixime: 10000 uM) in PEPT1-expressing LLC-PK1 cells
[12] = substrate: CC1=C(C(=O)O)N2C(=O)[C@@H](NC(=O)[C@H](N)C3=CCC=CC3)[C@H]2SC1; experiment: as §1
[13] = substrate: Nc1nc(/C(=C/CC(=O)O)C(=O)N[C@@H]2C(=O)N3C(C(=O)O)=CCS[C@H]23)cs1; experiment: as §1

## Nc1nc(/C(=C/CC(=O)O)C(=O)N[C@@H]2C(=O)N3C(C(=O)O)=CCS[C@H]23)cs1
[1]
  Activity: inhibitor [+]

## CC(C)C[C@H](NC(=O)CN)C(=O)O
[2]
  Activity: inhibitor [+]
[3]
  Activity: inhibitor [+]

## NCC(=O)NCC(=O)N[C@@H](Cc1ccccc1)C(=O)O (H-Gly-Gly-Phe-OH)
[4]
  Activity: inhibitor [+]
[5]
  Activity: inhibitor [+]

## CN(CC(=O)O)C(=O)CN (HELM PEPTIDE1{G.[Sar]}$$$$V2.0)
[6]
  Activity: inhibitor [+]
[7]
  Activity: inhibitor [+]

## CC(C)C[C@H](NC(=O)[C@@H](O)[C@H](N)Cc1ccccc1)C(=O)O
[8]
  Activity: inhibitor [+]
[9]
  Activity: inhibitor [+]
[10]
  Activity: substrate [+]

## C=CC1=C(C(=O)O)N2C(=O)[C@@H](NC(=O)/C(=N\OCC(=O)O)c3csc(N)n3)[C@H]2SC1
[11]
  Activity: inhibitor [+]

B1: Solute carrier family 15 member 1 (Rattus norvegicus), P51574 (protein)
chain: MGMSKSRGCFGYPLSIFFIVVNEFCERFSYYGMRALLVLYFRNFLGWDDDLSTAIYHTFVALCYLTPILGALIADSWLGKFKTIVSLSIVYTIGQAVISVSSINDLTDHDHDGSPNNLPLHVALSMIGLALIALGTGGIKPCVSAFGGDQFEEGQEKQRNRFFSIFYLAINAGSLLSTIITPILRVQQCGIHSQQACYPLAFGVPAALMAVALIVFVLGSGMYKKFQPQGNIMGKVAKCIRFAIKNRFRHRSKAFPKRNHWLDWAKEKYDERLISQIKIMTKVMFLYIPLPMFWALFDQQGSRWTLQATTMTGKIGTIEIQPDQMQTVNAILIVIMVPIVDAVVYPLIAKCGFNFTSLKKMTVGMFLASMAFVVAAIVQVEIDKTLPVFPSGNQVQIKVLNIGNNDMAVYFPGKNVTVAQMSQTDTFMTFDVDQLTSINVSSPGSPGVTTVAHEFEPGHRHTLLVWGPNLYRVVKDGLNQKPEKGENGIRFVSTLNEMITIKMSGKVYENVTSHSASNYQFFPSGQKDYTINTTEIAPNCSSDFKSSNLDFGSAYTYVIRSRASDGCLEVKEFEDIPPNTVNMALQIPQYFLLTCGEVVFSVTGLEFSYSQAPSNMKSVLQAGWLLTVAIGNIIVLIVAEAGHFDKQWAEYVLFASLLLVVCIIFAIMARFYTYINPAEIEAQFDEDEKKKGVGKENPYSSLEPVSQTNM
[12]
  Km: 8.2 mM
[13]
  Km: 1.5 mM
